From patent publication US10807992B2, “Single enantiomer antiparasitic compounds” (priority 2017, dated 2020)
Where two headings read alike, the source gives them in different places.

Experiment: Plasma PK from oral tick and flea efficacy studies of the C1 racemate
Type: in vivo, Mongrel dogs
Settings: for Cmax / AUC(0-t) / AUC(0-inf) / half-life / CL/F / Tmax: mongrel, dog, po; for Cmax / AUC(0-t) / AUC(0-inf) / half-life / CL/F / Tmax / tlast: plasma; for AUC(0-t): read-out: NCA AUC0-last
Excerpt: However, the S- enantiomer plasma PK curves and calculated PK parameters conducted in beagle dogs differed from oral efficacy studies conducted on the racemate dosed in mongrels.
Pharmacokinetic results from the compound C1 (S) enantiomer PK study differed from racemic efficacy studies. Average plasma pharmacokinetic parameters from the compound C1 (S) enantiomer PK study described in this document are compared to those from oral efficacy studies of the racemate in Table 6.

[1] = 10 mg/kg, Flea Efficacy study, oral 10 mg/kg
[2] = 10 mg/kg, Tick Efficacy study, oral 10 mg/kg
[3] = 20 mg/kg, Flea Efficacy study, oral 20 mg/kg
[4] = 20 mg/kg, Tick Efficacy study, oral 20 mg/kg

O=C(CC(F)(F)F)N1CC2(C1)OCc1cc(C3=NSC(c4cc(Cl)c(F)c(Cl)c4)(C(F)(F)F)C3)ccc12 (racemic) [C1 racemate, 1-[6-[5-(3,5-dichloro-4-fluoro-phenyl)-5-(trifluoromethyl)-4H-isothiazol-3-yl]spiro[1H-isobenzofuran-3,3′-azetidine]-1′-yl]-3,3,3-trifluoro-propan-1-one]
absorption and elimination in dogs (dogs, oral): well-absorbed compound with an extended elimination half-life in dogs | Cmax (10 mg/kg, Mongrel, Flea Efficacy study, oral 10 mg/kg, read-out: Cmax): 3470 ng/mL | AUC(0-t) (10 mg/kg, Mongrel, Flea Efficacy study, oral 10 mg/kg): 266 µg·h/mL | AUC(0-inf) (10 mg/kg, Mongrel, Flea Efficacy study, oral 10 mg/kg, read-out: NCA AUC0-∞): 361 µg·h/mL | half-life (10 mg/kg, Mongrel, Flea Efficacy study, oral 10 mg/kg, read-out: t1/2 (converted)): 23.8 days | Cmax (10 mg/kg, Mongrel, Tick Efficacy study, oral 10 mg/kg, read-out: Cmax): 3780 ng/mL | AUC(0-t) (10 mg/kg, Mongrel, Tick Efficacy study, oral 10 mg/kg): 344 µg·h/mL | AUC(0-inf) (10 mg/kg, Mongrel, Tick Efficacy study, oral 10 mg/kg, read-out: NCA AUC0-∞): 395 µg·h/mL | half-life (10 mg/kg, Mongrel, Tick Efficacy study, oral 10 mg/kg, read-out: t1/2 (converted)): 16.4 days | AUC(0-inf) (10 mg/kg, range over racemate efficacy studies, at 10 mg/kg, read-out: plasma area under the curve extrapolated to infinity (AUC0-∞)): 361 to 395 µg·h/mL | Cmax (10 mg/kg, range over racemate efficacy studies, dosed at 10 mg/kg, read-out: plasma Cmax): 3470 to 3780 ng/mL | CL/F [1]: 0.643 mL/min/kg | Tmax [1]: 0.0417 days | CL/F [2]: 0.502 mL/min/kg | Tmax [2]: 0.125 days | Cmax (20 mg/kg, Mongrel, Flea Efficacy study, oral 20 mg/kg, read-out: Cmax): 4740 ng/mL | AUC(0-t) (20 mg/kg, Mongrel, Flea Efficacy study, oral 20 mg/kg): 463 µg·h/mL | AUC(0-inf) (20 mg/kg, Mongrel, Flea Efficacy study, oral 20 mg/kg, read-out: NCA AUC0-∞): 525 µg·h/mL | half-life (20 mg/kg, Mongrel, Flea Efficacy study, oral 20 mg/kg, read-out: t1/2 (converted)): 14.9 days | Cmax (20 mg/kg, Mongrel, Tick Efficacy study, oral 20 mg/kg, read-out: Cmax): 6240 ng/mL | AUC(0-t) (20 mg/kg, Mongrel, Tick Efficacy study, oral 20 mg/kg): 494 µg·h/mL | AUC(0-inf) (20 mg/kg, Mongrel, Tick Efficacy study, oral 20 mg/kg, read-out: NCA AUC0-∞): 674 µg·h/mL | half-life (20 mg/kg, Mongrel, Tick Efficacy study, oral 20 mg/kg, read-out: t1/2 (converted)): 23.8 days | CL/F [3]: 0.737 mL/min/kg | Tmax [3]: 0.0417 days | CL/F [4]: 0.693 mL/min/kg | Tmax [4]: 0.0833 days | half-life (range over racemate efficacy studies, read-out: half-life): 14.9 to 23.8 days | CL/F (range over racemate efficacy studies): 0.5 to 0.733 mL/min/kg | tlast (Mongrel, Flea Efficacy study, oral 10 mg/kg): 1032 h | tlast (Mongrel, Flea Efficacy study, oral 20 mg/kg): 1032 h | tlast (Mongrel, Tick Efficacy study, oral 10 mg/kg): 1056 h | tlast (Mongrel, Tick Efficacy study, oral 20 mg/kg): 1056 h
